Measurements as given in PMC6691788, “Design and synthesis of phthalazine-based compounds as potent anticancer agents with potential antiangiogenic activity via VEGFR-2 inhibition” (Journal of Enzyme Inhibition and Medicinal Chemistry, 2019).

Experiments:
HL-60(TB) = assay: NCI 60 cell panel SRB screen; assay type: cell-based; conditions: Homo sapiens, single dose 10 μM, read-out: percent cell growth promotion
K-562 = assay: NCI 60 cell panel SRB screen; assay type: cell-based; conditions: Homo sapiens, K562; K-562, single dose 10 μM; read-out: percent cell growth promotion
MOLT-4 = assay: NCI 60 cell panel SRB screen; assay type: cell-based; conditions: Homo sapiens; MOLT-4, single dose 10 μM; read-out: percent cell growth promotion
NCI-H522 = assay: NCI 60 cell panel SRB screen; assay type: cell-based; conditions: Homo sapiens; NCI-H522, single dose 10 μM; read-out: percent cell growth promotion
HT29 = assay: NCI 60 cell panel SRB screen; assay type: cell-based; conditions: Homo sapiens, HT-29; HT29, single dose 10 μM; read-out: percent cell growth promotion
MDA-MB-435 = assay: NCI 60 cell panel SRB screen; assay type: cell-based; conditions: Homo sapiens, MDA-MB-435, read-out: percent cell growth promotion
UACC-257 = assay: NCI 60 cell panel SRB screen; assay type: cell-based; conditions: Homo sapiens, UACC-257, read-out: percent cell growth promotion
IGROV1 = assay: NCI 60 cell panel SRB screen; assay type: cell-based; conditions: Homo sapiens, IGROV-1; IGROV1, single dose 10 μM; read-out: percent cell growth promotion
OVCAR-3 = assay: NCI 60 cell panel SRB screen; assay type: cell-based; conditions: Homo sapiens; OVCAR-3, single dose 10 μM; read-out: percent cell growth promotion
CAKI-1 = assay: NCI 60 cell panel SRB screen; assay type: cell-based, human; conditions: Homo sapiens; CAKI-1, single dose 10 μM; read-out: percent cell growth promotion
DU-145 = assay: NCI 60 cell panel SRB screen; assay type: cell-based; conditions: Homo sapiens; DU-145, single dose 10 μM; read-out: percent cell growth promotion
MCF7 = assay: NCI 60 cell panel SRB screen; assay type: cell-based; conditions: Homo sapiens, MCF7, read-out: percent cell growth promotion
MDA-MB 231/ATCC = assay: NCI 60 cell panel SRB screen; assay type: cell-based; conditions: Homo sapiens, MDA-MB-231, read-out: percent cell growth promotion
BT-549 = assay: NCI 60 cell panel SRB screen; assay type: cell-based; conditions: Homo sapiens, BT-549, read-out: percent cell growth promotion
T-47D = assay: NCI 60 cell panel SRB screen; assay type: cell-based; conditions: Homo sapiens, T47D, read-out: percent cell growth promotion
VEGFR-2 tyrosine kinase = target: T1, VEGFR-2 tyrosine kinase (Homo sapiens, UniProt P35968); assay: In vitro VEGFR-2 tyrosine kinase assay (BPS Bioscience); assay type: biochemical; conditions: read-out: VEGFR-2 % inhibition; 10 μM concentration
T1 construct: purchased BPS Bioscience 40301
Procedure, shortened: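 Single-point screen at 10 µM: recombinant VEGFR with poly(Glu,Tyr) 0.2 mg/ml, 10 μM ATP, Tris pH 7.4, MgCl2, BSA, 1% DMSO, 40 min at 30 °C; residual ATP read by Kinase-Glo Plus luminescence.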

T1 sequence (P35968 20-1356): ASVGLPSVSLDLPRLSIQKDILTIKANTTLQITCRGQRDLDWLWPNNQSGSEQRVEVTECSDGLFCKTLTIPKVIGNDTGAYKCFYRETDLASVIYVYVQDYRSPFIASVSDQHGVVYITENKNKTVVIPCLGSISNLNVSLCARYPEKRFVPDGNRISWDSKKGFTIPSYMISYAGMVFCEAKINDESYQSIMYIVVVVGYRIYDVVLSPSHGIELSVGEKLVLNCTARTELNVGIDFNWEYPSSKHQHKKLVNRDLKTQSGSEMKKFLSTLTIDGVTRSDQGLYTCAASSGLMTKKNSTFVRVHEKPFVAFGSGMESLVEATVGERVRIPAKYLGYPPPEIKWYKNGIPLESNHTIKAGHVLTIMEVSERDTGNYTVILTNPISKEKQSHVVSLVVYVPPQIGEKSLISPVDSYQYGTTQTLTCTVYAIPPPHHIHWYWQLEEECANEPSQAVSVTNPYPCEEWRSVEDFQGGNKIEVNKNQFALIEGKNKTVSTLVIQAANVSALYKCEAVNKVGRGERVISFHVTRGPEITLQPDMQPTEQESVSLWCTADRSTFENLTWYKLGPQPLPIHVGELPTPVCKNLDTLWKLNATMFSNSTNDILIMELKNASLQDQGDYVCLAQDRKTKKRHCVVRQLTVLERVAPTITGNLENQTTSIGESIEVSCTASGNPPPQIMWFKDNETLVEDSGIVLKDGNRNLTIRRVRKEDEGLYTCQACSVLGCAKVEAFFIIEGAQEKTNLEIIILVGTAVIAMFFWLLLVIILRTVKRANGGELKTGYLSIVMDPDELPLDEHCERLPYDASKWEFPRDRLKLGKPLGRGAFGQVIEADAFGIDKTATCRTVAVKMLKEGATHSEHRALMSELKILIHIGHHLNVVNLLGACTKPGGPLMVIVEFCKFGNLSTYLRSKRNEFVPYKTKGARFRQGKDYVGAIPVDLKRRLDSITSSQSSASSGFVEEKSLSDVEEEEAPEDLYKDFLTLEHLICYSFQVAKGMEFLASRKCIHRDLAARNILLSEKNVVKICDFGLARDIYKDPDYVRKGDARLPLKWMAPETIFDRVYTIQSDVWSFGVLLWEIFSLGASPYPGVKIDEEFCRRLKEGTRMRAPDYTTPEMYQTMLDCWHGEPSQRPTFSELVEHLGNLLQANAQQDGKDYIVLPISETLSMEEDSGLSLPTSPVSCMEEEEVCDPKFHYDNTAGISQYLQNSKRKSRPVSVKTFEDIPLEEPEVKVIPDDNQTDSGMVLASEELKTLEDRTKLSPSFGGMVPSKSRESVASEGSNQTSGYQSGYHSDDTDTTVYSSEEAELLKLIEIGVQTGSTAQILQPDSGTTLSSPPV

Compound: CCOC(=O)N1CCN(c2nnc(C)c3ccccc23)CC1 [Compound 8f, Ethyl 4–(4-methylphthalazin-1-yl)piperazine-1-carboxylate]
- activity at 10 µM (HL-60(TB)): 114%
- activity at 10 µM (K-562): 100%
- activity at 10 µM (MOLT-4): 109%
- activity at 10 µM (NCI-H522): 93.8%
- activity at 10 µM (HT29): 96%
- activity at 10 µM (MDA-MB-435): 97.4%
- activity at 10 µM (UACC-257): 92.4%
- activity at 10 µM (IGROV1): 109%
- activity at 10 µM (OVCAR-3): 112%
- activity at 10 µM (CAKI-1): 90.3%
- activity at 10 µM (DU-145): 100%
- activity at 10 µM (MCF7): 92.1%
- activity at 10 µM (MDA-MB 231/ATCC): 114%
- activity at 10 µM (BT-549): 66.7%
- activity at 10 µM (T-47D): 87.2%
- inhibition at 10 µM (VEGFR-2 tyrosine kinase): 14%

Compound: Cc1nnc(Oc2ccc(NC(=O)Nc3ccc(Cl)cc3)cc2)c2ccccc12 [Compound 7e, 1–(4-Chlorophenyl)-3–(4-(4-methylphthalazin-1-yloxy)phenyl)urea]
- activity at 10 µM (HL-60(TB)): 80.1%
- activity at 10 µM (K-562): 61.1%
- activity at 10 µM (MOLT-4): 36.1%
- activity at 10 µM (NCI-H522): 63.8%
- activity at 10 µM (HT29): 77%
- activity at 10 µM (MDA-MB-435): 79.2%
- activity at 10 µM (UACC-257): 83.9%
- activity at 10 µM (IGROV1): 90.9%
- activity at 10 µM (OVCAR-3): 69.8%
- activity at 10 µM (CAKI-1): 79.7%
- activity at 10 µM (DU-145): 81.4%
- activity at 10 µM (MCF7): 72.7%
- activity at 10 µM (MDA-MB 231/ATCC): 52.9%
- activity at 10 µM (BT-549): 72%
- activity at 10 µM (T-47D): 57.9%
- inhibition at 10 µM (VEGFR-2 tyrosine kinase): 14%

Compound: Cc1nnc(N2CCN(c3ccccc3)CC2)c2ccccc12 [Compound 8g, 1-Methyl-4–(4-phenylpiperazin-1-yl)phthalazine]
- activity at 10 µM (HL-60(TB)): 103%
- activity at 10 µM (K-562): 116%
- activity at 10 µM (MOLT-4): 110%
- activity at 10 µM (NCI-H522): 94.5%
- activity at 10 µM (HT29): 98.3%
- activity at 10 µM (MDA-MB-435): 99.5%
- activity at 10 µM (UACC-257): 93%
- activity at 10 µM (IGROV1): 112%
- activity at 10 µM (OVCAR-3): 108%
- activity at 10 µM (CAKI-1): 95.3%
- activity at 10 µM (DU-145): 111%
- activity at 10 µM (MCF7): 96.7%
- activity at 10 µM (MDA-MB 231/ATCC): 127%
- activity at 10 µM (BT-549): 75.5%
- activity at 10 µM (T-47D): 90.5%
- inhibition at 10 µM (VEGFR-2 tyrosine kinase): 13%
